Measurements published in the supplement of paper PMC11451515.

Tested on: P12-Ichikawa
Experiment: cell viability relative to DMSO control; higher = less cytotoxic
Conditions: 48 h
Outline: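 Three leukemia lines were tested: NOMO1 and SEM at 500 cells/well and P12-Ichikawa at 1000 cells/well. Each was adapted for at least four passages in each medium and seeded in 5 μl in 1536-well plates, and library compounds in DMSO were pin-dosed from 47 μM to 0.79 nM in 11 threefold steps. After 48 h at 37°C, CellTiter-Glo One luminescence was read. Viability is a percentage relative to DMSO wells on each plate, with cell-free wells as background.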

[1] = HPLM + 10% dialyzed FBS, 0.000781 µM
[2] = HPLM + 10% dialyzed FBS, 0.00234 µM
[3] = HPLM + 10% dialyzed FBS, 0.00702 µM
[4] = HPLM + 10% dialyzed FBS, 0.0211 µM
[5] = HPLM + 10% dialyzed FBS, 0.0632 µM
[6] = HPLM + 10% dialyzed FBS, 0.19 µM
[7] = HPLM + 10% dialyzed FBS, 0.569 µM
[8] = HPLM + 10% dialyzed FBS, 1.71 µM
[9] = HPLM + 10% dialyzed FBS, 5.12 µM
[10] = HPLM + 10% dialyzed FBS, 15.4 µM
[11] = HPLM + 10% dialyzed FBS, 46.1 µM
[12] = RPMI 5 mM glucose + 10% FBS, 0.000781 µM
[13] = RPMI 5 mM glucose + 10% FBS, 0.00234 µM
[14] = RPMI 5 mM glucose + 10% FBS, 0.00702 µM
[15] = RPMI 5 mM glucose + 10% FBS, 0.0211 µM
[16] = RPMI 5 mM glucose + 10% FBS, 0.0632 µM
[17] = RPMI 5 mM glucose + 10% FBS, 0.19 µM
[18] = RPMI 5 mM glucose + 10% FBS, 0.569 µM
[19] = RPMI 5 mM glucose + 10% FBS, 1.71 µM
[20] = RPMI 5 mM glucose + 10% FBS, 5.12 µM
[21] = RPMI 5 mM glucose + 10% FBS, 15.4 µM
[22] = RPMI 5 mM glucose + 10% FBS, 46.1 µM
[23] = RPMI 5 mM glucose + 10% dialyzed FBS, 0.000781 µM
[24] = RPMI 5 mM glucose + 10% dialyzed FBS, 0.00234 µM
[25] = RPMI 5 mM glucose + 10% dialyzed FBS, 0.00702 µM
[26] = RPMI 5 mM glucose + 10% dialyzed FBS, 0.0211 µM
[27] = RPMI 5 mM glucose + 10% dialyzed FBS, 0.0632 µM
[28] = RPMI 5 mM glucose + 10% dialyzed FBS, 0.19 µM
[29] = RPMI 5 mM glucose + 10% dialyzed FBS, 0.569 µM
[30] = RPMI 5 mM glucose + 10% dialyzed FBS, 1.71 µM
[31] = RPMI 5 mM glucose + 10% dialyzed FBS, 5.12 µM
[32] = RPMI 5 mM glucose + 10% dialyzed FBS, 15.4 µM
[33] = RPMI 5 mM glucose + 10% dialyzed FBS, 46.1 µM

SMILES | cell viability [1] | cell viability [2] | cell viability [3] | cell viability [4] | cell viability [5] | cell viability [6] | cell viability [7] | cell viability [8] | cell viability [9] | cell viability [10] | cell viability [11] | cell viability [12] | cell viability [13] | cell viability [14] | cell viability [15] | cell viability [16] | cell viability [17] | cell viability [18] | cell viability [19] | cell viability [20] | cell viability [21] | cell viability [22] | cell viability [23] | cell viability [24] | cell viability [25] | cell viability [26] | cell viability [27] | cell viability [28] | cell viability [29] | cell viability [30] | cell viability [31] | cell viability [32] | cell viability [33]
ClC1=CC\2=C(NC(=O)\C(=C2N[C@@H]3CN4CCC3CC4)C5=NC6=C([NH]5)C=CC=C6)C=C1 | 110% | 117% | 112% | 113% | 112% | 104% | 56.8% | 11.9% | 8.98% | 10.4% | 18.9% | 102% | 120% | 113% | 120% | 122% | 55.9% | 19.6% | 13.1% | 11% | 9.4% | 14.9% | 116% | 122% | 119% | 112% | 116% | 95.8% | 45.1% | 14% | 12.5% | 12.4% | 16.4%
CN1CCC[C@@H]1CCO[C@](C)(c1ccccc1)c1ccc(Cl)cc1 | 94.5% | 100% | 99.3% | 113% | 105% | 104% | 104% | 107% | 112% | 109% | 97.2% | 97.8% | 104% | 106% | 104% | 108% | 98.1% | 104% | 114% | 100% | 119% | 101% | 93.9% | 101% | 111% | 106% | 103% | 100% | 105% | 102% | 104% | 108% | 90%
CN(C)CCOc1ccc(-c2nc(-c3ccncc3)c(-c3ccc4c(c3)CC/C4=N\O)[nH]2)cc1 | 103% | 107% | 106% | 100% | 103% | 109% | 106% | 100% | 93.7% | 90.6% | 65.9% | 113% | 108% | 109% | 110% | 109% | 107% | 109% | 103% | 94.5% | 96.4% | 65.6% | 109% | 104% | 114% | 101% | 106% | 105% | 109% | 104% | 96.8% | 84% | 66.7%
C=CC(=O)Nc1cccc(Nc2nc(NC3CCC(N(C)C)CC3)nc3c2ncn3C(C)C)c1 (configuration not stated) | 107% | 115% | 112% | 106% | 112% | 113% | 105% | 85.3% | 36.7% | 11.1% | 5.85% | 115% | 114% | 114% | 112% | 115% | 112% | 107% | 94.8% | 28.6% | 8.46% | 5.44% | 108% | 110% | 108% | 116% | 122% | 119% | 123% | 114% | 35.5% | 11% | 6.55%
O=C(O)/C=C/c1ccc(O)c(O)c1 | 118% | 113% | 105% | 112% | 110% | 103% | 107% | 99.2% | 105% | 88.3% | 18.3% | 106% | 111% | 111% | 112% | 108% | 106% | 113% | 117% | 105% | 93.4% | 6.72% | 100% | 120% | 105% | 116% | 117% | 110% | 115% | 103% | 99.7% | 88.7% | 7.01%
COC[C@H](c1ccc(C(F)(F)F)cc1)N1CCN(C2(C)CCN(C(=O)c3c(C)ncnc3C)CC2)C[C@H]1C.O=C(O)/C=C\C(=O)O | 92% | 100% | 107% | 111% | 107% | 110% | 113% | 117% | 106% | 103% | 98.5% | 101% | 123% | 109% | 110% | 106% | 121% | 109% | 104% | 105% | 99.8% | 99.3% | 90.1% | 108% | 99.7% | 110% | 103% | 111% | 117% | 110% | 102% | 95.2% | 92.1%
NC(=O)c1cccc2cn(-c3ccc([C@@H]4CCCNC4)cc3)nc12 | 90.3% | 94.4% | 103% | 104% | 110% | 105% | 108% | 106% | 101% | 86.9% | 33.8% | 83.9% | 90.4% | 96.8% | 100% | 103% | 105% | 101% | 102% | 103% | 75.5% | 24.5% | 94.1% | 98.6% | 103% | 105% | 108% | 113% | 103% | 106% | 101% | 88.4% | 55.5%
C/C(O)=C(\C#N)C(=O)Nc1cc(Br)ccc1Br | 105% | 110% | 114% | 109% | 109% | 109% | 108% | 105% | 99.6% | 97.9% | 95% | 100% | 109% | 104% | 108% | 105% | 107% | 100% | 101% | 104% | 96.4% | 86.5% | 106% | 113% | 114% | 109% | 106% | 104% | 103% | 116% | 96.3% | 94.5% | 94.5%
NC(=O)c1cccc2nc(-c3ccc([C@H]4CCCN4)cc3F)[nH]c12 | 99.9% | 110% | 105% | 114% | 115% | 111% | 120% | 114% | 105% | 95.8% | 84.2% | 97% | 97.6% | 100% | 105% | 114% | 113% | 123% | 112% | 109% | 103% | 70.1% | 99.5% | 105% | 110% | 119% | 109% | 119% | 121% | 116% | 120% | 107% | 65.1%
CC1=C(CC(=O)O)c2cc(F)ccc2/C1=C\c1ccc([S+](C)[O-])cc1 (configuration not stated) | 121% | 110% | 116% | 123% | 124% | 117% | 116% | 109% | 108% | 106% | 101% | – | – | – | – | – | – | – | – | – | – | – | 121% | 120% | 127% | 125% | 112% | 122% | 109% | 108% | 111% | 111% | 105%
Cc1cc(C(=O)N2CCN(c3cccc(Cl)c3)CC2)n(-c2ccccc2)n1 | 109% | 107% | 103% | 107% | 103% | 103% | 105% | 50.2% | 23.9% | 10.1% | 12.5% | 105% | 113% | 102% | 105% | 101% | 90.2% | 101% | 80.5% | 36.8% | 10.4% | 16.6% | 101% | 92.8% | 105% | 104% | 103% | 91.2% | 95.5% | 70.1% | 40.9% | 20.5% | 20.4%
O=C(Cc1ccc(-c2ccc(OCCN3CCOCC3)cc2)cn1)NCc1ccccc1 | 107% | 113% | 114% | 85.6% | 36.1% | 17.3% | 14% | 13.2% | 10.3% | 9.64% | 11.6% | 114% | 114% | 123% | 97% | 40% | 25.9% | 15.6% | 15.1% | 10.4% | 8.04% | 8.38% | 122% | 118% | 119% | 112% | 33.3% | 35% | 22.9% | 22.2% | 13.6% | 11.6% | 16.6%
O=C(Nc1ncc(-c2cc(C(F)F)nn2-c2c(Cl)cccc2Cl)s1)C1CC1 | 116% | 122% | 123% | 131% | 130% | 129% | 126% | 14.2% | 18.3% | 11% | 14.6% | – | – | – | – | – | – | – | – | – | – | – | – | – | – | – | – | – | – | – | – | – | –
CN1CCN2c3ncccc3Cc3ccccc3C2C1 (configuration not stated) | 122% | 119% | 113% | 120% | 122% | 115% | 114% | 119% | 114% | 108% | 111% | 134% | 118% | 124% | 132% | 129% | 125% | 135% | 121% | 117% | 112% | 101% | 125% | 118% | 113% | 120% | 121% | 118% | 128% | 115% | 111% | 108% | 100%
C[C@]12CC[C@H]3[C@@H](C\C=C/4C[C@@H](O)CC[C@]34C)[C@@H]1CCC2=O | 111% | 110% | 117% | 108% | 110% | 115% | 107% | 111% | 58% | 102% | 96.2% | – | – | – | – | – | – | – | – | – | – | – | 111% | 109% | 115% | 108% | 122% | 114% | 105% | 102% | 99.1% | 101% | 98.5%
Nc1cc(C(F)(F)F)c(-c2cc(N3CCOCC3)nc(N3CCOCC3)n2)cn1 | – | – | – | – | – | – | – | – | – | – | – | 111% | 124% | 135% | 137% | 133% | 126% | 94.8% | 67.2% | 15.7% | 13.2% | 7.95% | – | – | – | – | – | – | – | – | – | – | –
